According to PubChem BioAssay (NCI):
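The compound was tested at five concentrations on cells cultured in 96-well plates, with a 48-hour exposure period. GI50: concentration for 50% inhibition of growth. The concentration for full growth arrest is given as TGI.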

Legend:
Experiment in all cases: inhibition of tumour cell growth, NCI panel, 48 h
A549 NSCLC = tested on: A549 NSCLC
HL-60(TB) leukemia = tested on: HL-60(TB) leukemia
LOX IMVI melanoma = tested on: LOX IMVI melanoma
HOP-92 NSCLC = tested on: HOP-92 NSCLC
CCRF-CEM leukemia = tested on: CCRF-CEM leukemia
SK-MEL-5 melanoma = tested on: SK-MEL-5 melanoma
DU-145 prostate = tested on: DU-145 prostate
SK-MEL-28 melanoma = tested on: SK-MEL-28 melanoma
A498 renal = tested on: A498 renal
OVCAR-3 ovarian = tested on: OVCAR-3 ovarian

Row | Structure (SMILES) | GI50 (A549 NSCLC) [µM] | TGI (A549 NSCLC) [µM] | GI50 (HL-60(TB) leukemia) [µM] | TGI (HL-60(TB) leukemia) [µM] | GI50 (LOX IMVI melanoma) [µM] | TGI (LOX IMVI melanoma) [µM] | GI50 (HOP-92 NSCLC) [µM] | TGI (HOP-92 NSCLC) [µM] | GI50 (CCRF-CEM leukemia) [µM] | TGI (CCRF-CEM leukemia) [µM] | GI50 (SK-MEL-5 melanoma) [µM] | TGI (SK-MEL-5 melanoma) [µM] | GI50 (DU-145 prostate) [µM] | TGI (DU-145 prostate) [µM] | GI50 (SK-MEL-28 melanoma) [µM] | TGI (SK-MEL-28 melanoma) [µM] | GI50 (A498 renal) [µM] | TGI (A498 renal) [µM] | GI50 (OVCAR-3 ovarian) [µM] | TGI (OVCAR-3 ovarian) [µM]
1 | COc1cccc(/C=C2\COc3ccc(-c4ccccc4)cc3C2=O)c1 | 3.17 | 18.7 | 2.52 | > 100 | 2.02 | 4.62 | 2.34 | 9.41 | 2.42 | 28.1 | 1.67 | 3.55 | 2.05 | 5.43 | 1.91 | 3.62 | 1.89 | 3.52 |  | 
2 | COc1ccc(N=N/C(C(=O)C(F)(F)F)=C(\O)c2ccc(Cl)cc2)cc1 | 3.83 | 16.8 | 7.11 | 39.4 | 3.29 | 21.5 |  |  | 4.61 | > 100 | 3.63 | 14.3 | 14.6 | 70.8 | 7.22 | > 100 | 10.9 | 23.8 | 7.21 | 35.4
3 | CC(=O)O[C@H]1CC[C@@]2(C)C(=CC[C@@H]3C2CC[C@]2(C)Nc4nc5ccccc5cc4CC32)C1 (stereo partly drawn) |  | 12.9 |  | 17.7 |  |  |  |  |  | 14 |  | 15.4 |  |  |  |  |  | 18.9 |  | 8.53
4 | C=CCc1cc(OC)c2c(c1)C(OC)CC(c1ccc(OC)c(OC)c1)O2 (stereo not drawn) |  | > 100 |  | > 100 |  | > 100 |  |  |  | > 100 |  | > 100 |  |  |  | > 100 |  | > 100 |  | > 100
5 | CN(CCCNC(=O)CCOCCOCCOCCNC(=O)Cc1ccc2ccc3cccc4ccc1c2c34)CCCNc1cc(-c2ccc3ccccc3c2)nc2ccccc12 | 0.629 | 1.74 |  |  | 0.176 | 0.333 | 0.38 | 2.22 |  |  | 0.541 | 1.01 | 0.561 | 1.2 | 0.191 | 0.347 | 1.38 | 2.92 | 0.572 | 1.17
6 | CCCCCCCCCCCC[n+]1ccc2ccccc2c1 | 1.75 | 3.38 | 0.267 | 0.954 |  |  | 0.3 | 1.79 | 0.317 | 2.09 | 0.317 | 1.28 | 1.18 | 2.74 | 1.47 | 3 | 2.57 | 8.76 | 0.579 | 1.89
7 | Nc1ncnc2c1ncn2C1OC(CO)C(O)C1N (stereo not drawn) |  | > 100 |  | > 100 |  | > 100 |  | > 100 |  |  |  | > 100 |  | > 100 |  | > 100 |  | > 100 |  | > 100
8 | O=C(CC(Cl)=C(Cl)Cl)c1cccc(Cl)c1Cl | > 100 | > 100 | 64.8 | > 100 | 38.1 | > 100 | 61 | > 100 | 46.6 | > 100 | > 100 | > 100 | > 100 | > 100 | > 100 | > 100 | > 100 | > 100 |  | 
9 | Cn1nc(-c2ccccc2)c2c(/C=C/c3ccccc3)onc2c1=O |  | > 100 |  | > 100 |  | > 100 |  | 98.2 |  | > 100 |  | > 100 |  |  |  | > 100 |  | > 100 |  | > 100
10 | CC1=C(Nc2ccc(N3CCN(C)CC3)cc2)C(=O)c2cncnc2C1=O | 3.96 | 17.6 | 2.5 | 6.11 |  |  | 2.12 | 4.37 | 2.6 | > 100 | 14.4 | 27.6 | 4.34 | 16.9 | 17.1 | 43.3 |  |  | 1.97 | 4.28
11 | Cc1ccc(S(=O)(=O)NC(CN)C(=O)O)cc1 (stereo not drawn) |  | > 100 |  |  |  | > 100 |  | > 100 |  |  |  | > 100 |  | > 100 |  | > 100 |  | > 100 |  | > 100
12 | O=C(COc1cccc(/C=C2\CSc3ccccc3C2=O)c1)Nc1nccs1 | 5.73 | 18.3 |  |  | 1.58 | 3.06 |  |  | 1.26 | 4.06 | 2.38 | 15.5 | 1.94 | 3.99 | 3.75 | 12.4 | 15.3 | 28.9 | 1.62 | 2.98
13 | CC1(c2ccc(Cl)cc2)C2C(=O)NC(=O)C1C(=O)NC2=O (stereo not drawn) |  | > 100 |  | > 100 |  | > 100 |  | > 100 |  | > 100 |  | > 100 |  |  |  | > 100 |  | > 100 |  | > 100
14 | COc1cc2c3c(n(C)c(=O)c2cc1OC)-c1ccc(C#N)cc1C3=O | > 100 | > 100 |  |  | > 100 | > 100 | > 100 | > 100 | > 100 | > 100 | > 100 | > 100 | > 100 | > 100 | > 100 | > 100 | 64.7 | > 100 | > 100 | > 100
15 | CN(c1ccccc1)c1c(Cl)c(=O)oc2c1ccc1occc12 |  | > 100 |  | > 100 |  | > 100 |  | > 100 |  | > 100 |  | > 100 |  |  |  | > 100 |  | > 100 |  | > 100
16 | CCOC(=O)C1(C)CCCCC(=O)N1 (stereo not drawn) |  | > 100 |  | > 100 |  | > 100 |  | > 100 |  |  |  |  |  |  |  | > 100 |  |  |  | > 100
17 | CC(=O)OC1COC(n2c(=S)n(-c3ccccc3)c(=O)c3ccccc32)C(OC(C)=O)C1OC(C)=O (stereo not drawn) |  | > 100 |  | > 100 |  | > 100 |  | > 100 |  | > 100 |  | > 100 |  |  |  | > 100 |  | > 100 |  | > 100
18 | c1ccc2c(c1)cc1n2CC2CN=NC12 (stereo not drawn) |  | > 100 |  | > 100 |  | > 100 |  |  |  |  |  | > 100 |  |  |  | > 100 |  | > 100 |  | > 100
